SMILES strings stand for the structures.

For one assay, the target named is T1, ATR (Homo sapiens, UniProt Q13535).
T1 construct: endogenous in cells; host or cells: HT29 cells (ECACC #85061109)
In words: Assay b): ATR cellular potency (pChk1 Ser345 in HT29 cells after 4NQO). Type of assay: cell-based. The note with it: Table 3 comparative data; HT29 cells, pChk1 Ser345 after 4NQO; may be geometric mean of several tests; read-out: Assay b) ATR Cell IC50. The protocol:
(§1) The following assays were used to measure the effects of the compounds of the present invention: a) ATM cellular potency assay; b) PI3K cellular potency assay; c) mTOR cellular potency assay; d) ATR cellular potency assay. During the description of the assays, generally: • i. […] IC50 values were calculated using a smart fitting model in Genedata. […]
Phospho-Chk1 Ser 345 antibody (Cell Signalling Technology #2348) was diluted 150 fold in PBS containing 0.05% polysorbate/Tween and 15 μl was added to each well and incubated over night at r.t. […] After 2 h incubation at r.t., the plates were washed three times with 50 μl/well PBS, using a Biotek EL405 plate washer, and plates were then sealed with black plate seals until read. Plates were read using an ArrayScan VTI instrument, using an XF53 filter with 10× objective. […]

Another assay concerns the target T2, ATM (Homo sapiens, UniProt Q13315).
T2 construct: endogenous in cells; host or cells: HT29 cells (ECACC #85061109)
In words: Assay a): ATM cellular potency (pATM Ser1981 in irradiated HT29 cells). Type of assay: cell-based. The following applies: Table 2; HT29 cells, pATM Ser1981 after X-ray irradiation; may be geometric mean of several tests; read-out: Assay a) ATM Cell IC50. As to the method: as §1
The rationale of the pATM assay is to identify inhibitors of ATM in cells. […] The fluorescence is read on the arrayscan imaging platform. […]
Phospho-ATM Ser1981 antibody (Millipore #MAB3806) was diluted 10000 fold in PBS containing 0.05% polysorbate/Tween and 3% BSA and 20 μl was added to each well and incubated over night at r.t. […] After 1 h incubation at r.t., the plates were washed three times with 50 μl/well PBS, using a Biotek EL405 plate washer, and plates were sealed and kept in PBS at 4° C. until read. Plates were read using an ArrayScan VTI instrument, using an XF53 filter with 10× objective. […]

T1 sequence (Q13535 whole entry): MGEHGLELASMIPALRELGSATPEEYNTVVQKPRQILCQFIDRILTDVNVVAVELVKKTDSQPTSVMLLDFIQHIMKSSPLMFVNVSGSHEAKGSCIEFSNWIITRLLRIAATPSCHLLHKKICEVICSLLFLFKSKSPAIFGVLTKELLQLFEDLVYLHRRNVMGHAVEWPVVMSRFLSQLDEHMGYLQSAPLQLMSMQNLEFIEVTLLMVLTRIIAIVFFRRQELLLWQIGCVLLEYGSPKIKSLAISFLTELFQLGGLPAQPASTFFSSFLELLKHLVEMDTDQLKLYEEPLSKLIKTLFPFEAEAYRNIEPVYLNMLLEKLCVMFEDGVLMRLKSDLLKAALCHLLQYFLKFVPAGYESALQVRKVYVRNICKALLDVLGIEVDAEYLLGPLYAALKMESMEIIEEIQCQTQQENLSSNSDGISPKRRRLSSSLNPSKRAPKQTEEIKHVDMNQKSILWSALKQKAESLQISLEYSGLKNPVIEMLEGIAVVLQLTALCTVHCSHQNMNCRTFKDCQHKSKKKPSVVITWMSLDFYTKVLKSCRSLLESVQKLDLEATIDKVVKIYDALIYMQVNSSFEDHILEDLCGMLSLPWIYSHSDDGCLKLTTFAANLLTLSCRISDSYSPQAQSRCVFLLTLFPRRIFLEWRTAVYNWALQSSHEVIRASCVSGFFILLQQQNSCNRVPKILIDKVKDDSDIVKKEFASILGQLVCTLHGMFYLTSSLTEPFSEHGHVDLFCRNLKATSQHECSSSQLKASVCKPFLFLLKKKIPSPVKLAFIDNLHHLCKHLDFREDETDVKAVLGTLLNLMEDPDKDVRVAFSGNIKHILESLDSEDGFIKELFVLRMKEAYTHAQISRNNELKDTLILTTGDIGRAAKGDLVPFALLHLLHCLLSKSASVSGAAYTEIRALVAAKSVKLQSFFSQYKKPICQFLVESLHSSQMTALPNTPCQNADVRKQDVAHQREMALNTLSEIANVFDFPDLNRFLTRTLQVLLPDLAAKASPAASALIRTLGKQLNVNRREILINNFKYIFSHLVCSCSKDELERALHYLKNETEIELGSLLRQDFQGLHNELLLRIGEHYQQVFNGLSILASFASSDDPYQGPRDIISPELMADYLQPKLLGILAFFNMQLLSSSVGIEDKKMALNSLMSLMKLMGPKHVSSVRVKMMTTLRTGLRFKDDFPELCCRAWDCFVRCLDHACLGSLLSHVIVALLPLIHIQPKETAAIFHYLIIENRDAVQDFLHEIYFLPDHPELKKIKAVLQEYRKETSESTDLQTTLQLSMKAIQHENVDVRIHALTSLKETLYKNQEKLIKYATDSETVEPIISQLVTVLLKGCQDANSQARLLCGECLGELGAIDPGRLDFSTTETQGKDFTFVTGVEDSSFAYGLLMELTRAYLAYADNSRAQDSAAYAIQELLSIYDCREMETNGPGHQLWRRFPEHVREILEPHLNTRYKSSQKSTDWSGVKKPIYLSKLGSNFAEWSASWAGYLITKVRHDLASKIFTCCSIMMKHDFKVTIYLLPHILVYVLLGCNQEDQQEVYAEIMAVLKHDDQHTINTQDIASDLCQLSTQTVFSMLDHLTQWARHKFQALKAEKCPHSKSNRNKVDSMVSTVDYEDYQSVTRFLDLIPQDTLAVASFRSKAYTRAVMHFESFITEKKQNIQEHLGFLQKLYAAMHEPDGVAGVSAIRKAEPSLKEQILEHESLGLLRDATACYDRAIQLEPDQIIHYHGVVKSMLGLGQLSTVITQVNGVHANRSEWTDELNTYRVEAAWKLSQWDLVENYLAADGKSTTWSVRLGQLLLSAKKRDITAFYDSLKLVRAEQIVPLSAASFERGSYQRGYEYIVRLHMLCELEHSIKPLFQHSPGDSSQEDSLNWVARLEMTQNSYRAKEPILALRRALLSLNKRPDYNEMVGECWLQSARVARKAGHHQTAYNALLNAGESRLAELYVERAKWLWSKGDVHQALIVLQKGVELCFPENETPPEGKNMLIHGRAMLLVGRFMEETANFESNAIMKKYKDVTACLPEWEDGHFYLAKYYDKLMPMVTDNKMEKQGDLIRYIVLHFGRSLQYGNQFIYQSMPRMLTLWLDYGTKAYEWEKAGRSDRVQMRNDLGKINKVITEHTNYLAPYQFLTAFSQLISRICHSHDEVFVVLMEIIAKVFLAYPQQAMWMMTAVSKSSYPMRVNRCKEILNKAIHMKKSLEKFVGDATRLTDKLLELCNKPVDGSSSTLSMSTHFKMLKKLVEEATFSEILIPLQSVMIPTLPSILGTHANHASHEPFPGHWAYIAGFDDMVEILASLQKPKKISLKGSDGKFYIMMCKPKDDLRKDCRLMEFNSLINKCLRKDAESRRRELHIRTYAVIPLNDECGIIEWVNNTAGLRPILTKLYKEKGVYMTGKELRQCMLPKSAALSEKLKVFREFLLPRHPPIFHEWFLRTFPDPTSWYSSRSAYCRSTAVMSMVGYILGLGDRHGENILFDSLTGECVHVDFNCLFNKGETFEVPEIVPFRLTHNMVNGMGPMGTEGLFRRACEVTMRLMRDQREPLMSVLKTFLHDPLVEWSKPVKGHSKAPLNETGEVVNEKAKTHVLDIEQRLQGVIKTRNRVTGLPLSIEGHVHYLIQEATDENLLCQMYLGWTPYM
T1 sequence (Q8WXE1 whole entry partner): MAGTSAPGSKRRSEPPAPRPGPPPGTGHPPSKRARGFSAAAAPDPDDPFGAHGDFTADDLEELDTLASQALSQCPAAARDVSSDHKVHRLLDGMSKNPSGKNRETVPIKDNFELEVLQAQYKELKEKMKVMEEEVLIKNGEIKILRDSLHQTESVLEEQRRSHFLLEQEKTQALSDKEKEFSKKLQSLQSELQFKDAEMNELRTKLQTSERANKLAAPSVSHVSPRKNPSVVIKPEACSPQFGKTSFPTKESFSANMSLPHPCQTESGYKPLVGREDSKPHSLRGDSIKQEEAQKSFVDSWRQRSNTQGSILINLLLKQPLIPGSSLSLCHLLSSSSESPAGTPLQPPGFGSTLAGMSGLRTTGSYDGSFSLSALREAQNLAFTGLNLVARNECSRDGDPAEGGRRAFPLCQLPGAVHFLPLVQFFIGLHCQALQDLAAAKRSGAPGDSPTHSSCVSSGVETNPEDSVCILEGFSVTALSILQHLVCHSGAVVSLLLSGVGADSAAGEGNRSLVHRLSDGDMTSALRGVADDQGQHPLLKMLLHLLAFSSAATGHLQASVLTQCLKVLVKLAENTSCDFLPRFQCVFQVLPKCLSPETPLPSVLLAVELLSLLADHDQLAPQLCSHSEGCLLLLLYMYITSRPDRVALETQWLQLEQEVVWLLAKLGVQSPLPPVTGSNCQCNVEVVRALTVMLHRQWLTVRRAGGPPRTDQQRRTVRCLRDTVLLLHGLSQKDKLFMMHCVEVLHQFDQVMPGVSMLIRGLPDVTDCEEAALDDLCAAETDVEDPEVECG

By IC50 is commonly meant the concentration needed to halve the response being measured. Consider `Cn1c(=O)n(C2CCOCC2)c2c3cc(-c4cnn(CCCO)c4)ccc3ncc21` [CN102399218A Compound 60], for which the IC50 at ATR was found to be 419 nM.

Consider `[2H]c1c(F)c(-c2ccc(OCCCN3CCCCC3)nc2)cc2c1nc([2H])c1c2n(C(C)C)c(=O)n1C` [Example 1, 4,6-Dideuterio-7-fluoro-1-isopropyl-3-methyl-8-[6-[3-(1-piperidyl)propoxy]-3-pyridyl]imidazo[4,5-c]quinolin-2-one], for which the IC50 at ATM came to 2.5 nM.

The values are drawn from US20210347775A1, “Deuterated Imidazo[4,5-c]quinolin-2-one Compounds and Their Use in Treating Cancer” (AstraZeneca AB, priority 2017, published 2021).
